Columns and labels:
HCT-116 [1] = assay: Antiproliferative activity against human HCT-116 cells assessed as inhibition of cell growth by MTT assay; type: functional, cell-based
Histone deacetylase 4 = Histone deacetylase 4 (Homo sapiens, UniProt P56524); assay: Inhibition of HDAC4 (unknown origin)
HCT-116 [2] = assay: Induction of apoptosis in human HCT-116 cells assessed as viable cells at 1 uM incubated for 24 hrs by Annexin V-FITC/PI staining based flow cytometry analysis (reference value: 93.2%); type: functional; conditions: Homo sapiens, HCT-116, read-out: Activity
HCT-116 [3] = assay: Induction of apoptosis in human HCT-116 cells assessed as viable cells at 0.5 uM incubated for 24 hrs by Annexin V-FITC/PI staining based flow cytometry analysis (reference value: 93.2%); type: functional; conditions: read-out: Activity
HCT-116 [4] = assay: Induction of cell cycle arrest in human HCT-116 assessed as decrease in G0/G1 phase cells at 1 uM incubated for 48 hrs by flow cytometric analysis (reference value: 63.51%); type: functional; parameters: scale not given: the % may be the effect or the level left

Chain of Histone deacetylase 4 (P56524 whole entry): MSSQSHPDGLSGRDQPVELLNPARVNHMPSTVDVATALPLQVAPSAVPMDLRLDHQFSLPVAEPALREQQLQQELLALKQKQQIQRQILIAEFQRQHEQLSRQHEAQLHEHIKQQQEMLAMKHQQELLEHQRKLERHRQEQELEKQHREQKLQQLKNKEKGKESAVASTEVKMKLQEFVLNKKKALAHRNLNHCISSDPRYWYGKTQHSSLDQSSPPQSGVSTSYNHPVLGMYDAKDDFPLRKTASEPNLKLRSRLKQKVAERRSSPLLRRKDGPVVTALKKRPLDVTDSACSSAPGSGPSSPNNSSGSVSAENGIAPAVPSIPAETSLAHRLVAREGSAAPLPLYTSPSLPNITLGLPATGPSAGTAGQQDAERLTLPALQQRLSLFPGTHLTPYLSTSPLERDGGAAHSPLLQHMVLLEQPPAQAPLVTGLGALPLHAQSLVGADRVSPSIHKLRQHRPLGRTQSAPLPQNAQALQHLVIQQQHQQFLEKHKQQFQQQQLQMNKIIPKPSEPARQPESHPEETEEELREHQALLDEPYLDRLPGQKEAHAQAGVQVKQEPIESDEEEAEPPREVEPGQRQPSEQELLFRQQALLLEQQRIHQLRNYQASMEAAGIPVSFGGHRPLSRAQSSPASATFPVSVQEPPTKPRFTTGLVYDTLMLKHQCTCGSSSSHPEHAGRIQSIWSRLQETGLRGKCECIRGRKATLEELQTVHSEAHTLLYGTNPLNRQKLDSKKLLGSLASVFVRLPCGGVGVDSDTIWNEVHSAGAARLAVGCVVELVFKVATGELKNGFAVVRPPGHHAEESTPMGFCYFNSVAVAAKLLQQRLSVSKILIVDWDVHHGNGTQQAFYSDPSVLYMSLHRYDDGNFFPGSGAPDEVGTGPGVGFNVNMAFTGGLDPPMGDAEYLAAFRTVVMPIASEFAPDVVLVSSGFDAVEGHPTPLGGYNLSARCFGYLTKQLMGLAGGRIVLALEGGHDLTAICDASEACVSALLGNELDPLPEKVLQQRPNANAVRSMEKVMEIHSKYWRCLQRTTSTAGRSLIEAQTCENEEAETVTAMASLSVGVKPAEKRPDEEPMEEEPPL

O=C(CCCCCCNc1nc2ccccc2nc1-c1nc2ccccc2o1)NO was tested. Which IC50 (HCT-116 [1]) did it give?
The IC50 was 910 nM.

What about the IC50 (Histone deacetylase 4) of the same compound?
The IC50 was 15.5 nM.

And the viability at 1 µM (HCT-116 [2])?
The viability at 1 µM was 48.1%.

What about the viability at 0.5 µM (HCT-116 [3]) of the same compound?
Its viability at 0.5 µM is 64.5%.

What about the Activity (HCT-116 [4]) of the same compound?
The Activity was 46.57%.
